# Assay results as given in ChEMBL document CHEMBL6109097, “Structure-based design of novel 2,4,5-trisubstituted pyrimidine derivatives as potent HIV-1 NNRTIs by exploiting the tolerant regions in NNTRIs binding pocket” (Eur J Med Chem, 2025).
# Key:
# [1] = system: Human immunodeficiency virus 1; assay: Antiviral activity against wild type HIV-1 IIIB infected in human MT4 cells assessed as protection against virus-induced cytopathic effect incubated for 5 days by MTT assay; assay type: functional, organism-based; conditions: Human immunodeficiency virus 1, IIIB, MT4, 120 h
# [2] = Cytotoxicity against human MT4 cells assessed as reduction in cell viability incubated for 5 days by MTT assay; assay type: toxicity, cell-based; conditions: time 5 day
# [3] = Selectivity index, ratio of CC50 for cytotoxicity against human MT4 cells assessed as reduction in cell viability to EC50 for antiviral activity against human MT4 cells assessed as protection against virus-induced cytopathic effect; assay type: toxicity, cell-based; conditions: read-out: Ratio CC50/EC50
# [4] = system: Human immunodeficiency virus 1; assay: Antiviral activity against NNRTI-resistant HIV-1 harboring L100I mutant infected in human MT4 cells assessed as protection against virus-induced cytopathic effect incubated for 5 days by MTT assay; assay type: functional, organism-based; conditions: Human immunodeficiency virus 1, MT4, 120 h
# [5] = system: Human immunodeficiency virus 1; assay: Antiviral activity against NNRTI-resistant HIV-1 harboring K103N mutant infected in human MT4 cells assessed as protection against virus-induced cytopathic effect incubated for 5 days by MTT assay; assay type: functional, organism-based; conditions: Human immunodeficiency virus 1, MT4, 120 h
# [6] = system: Human immunodeficiency virus 1; assay: Antiviral activity against NNRTI-resistant HIV-1 harboring Y181C mutant infected in human MT4 cells assessed as protection against virus-induced cytopathic effect incubated for 5 days by MTT assay; assay type: functional, organism-based; conditions: Human immunodeficiency virus 1, MT4, 120 h
# [7] = system: Human immunodeficiency virus 1; assay: Antiviral activity against NNRTI-resistant HIV-1 harboring Y188L mutant infected in human MT4 cells assessed as protection against virus-induced cytopathic effect incubated for 5 days by MTT assay; assay type: functional, organism-based; conditions: Human immunodeficiency virus 1, MT4, 120 h
# [8] = system: Human immunodeficiency virus 1; assay: Antiviral activity against NNRTI-resistant HIV-1 harboring E138K mutant infected in human MT4 cells assessed as protection against virus-induced cytopathic effect incubated for 5 days by MTT assay; assay type: functional, organism-based; conditions: Human immunodeficiency virus 1, MT4, 120 h
# [9] = system: Human immunodeficiency virus 1; assay: Antiviral activity against NNRTI-resistant HIV-1 harboring F227L/V106A double mutant infected in human MT4 cells assessed as protection against virus-induced cytopathic effect incubated for 5 days by MTT assay; assay type: functional, organism-based; conditions: Human immunodeficiency virus 1, MT4, 120 h
# [10] = system: Human immunodeficiency virus 1; assay: Antiviral activity against NNRTI-resistant HIV-1 harboring RES056 mutant infected in human MT4 cells assessed as protection against virus-induced cytopathic effect incubated for 5 days by MTT assay; assay type: functional, organism-based; conditions: Human immunodeficiency virus 1, MT4, 120 h
# [11] = target: Human immunodeficiency virus type 1 reverse transcriptase (Human immunodeficiency virus 1, UniProt Q72547); assay: Inhibition of wild type HIV-1 reverse transcriptase assessed as reduction in biotin-dUTP incorporation in cDNA preincubated with compound for 1 hr in presence of biotin-labeled dNTPs by ELISA
# [12] = system: Human immunodeficiency virus 1; assay: Potency index, ratio of efavirenz EC50 to test compound EC50 for antiviral activity against NNRTI-resistant HIV-1 harboring L100I mutant infected in human MT4 cells assessed as protection against virus-induced cytopathic effect incubated for 5 days by MTT assay; assay type: functional; conditions: time 5 day
# [13] = system: Human immunodeficiency virus 1; assay: Potency index, ratio of efavirenz EC50 to test compound EC50 for antiviral activity against NNRTI-resistant HIV-1 harboring K103N mutant infected in human MT4 cells assessed as protection against virus-induced cytopathic effect incubated for 5 days by MTT assay; assay type: functional; conditions: time 5 day
# [14] = system: Human immunodeficiency virus 1; assay: Potency index, ratio of efavirenz EC50 to test compound EC50 for antiviral activity against NNRTI-resistant HIV-1 harboring F227L/V106A double mutant infected in human MT4 cells assessed as protection against virus-induced cytopathic effect incubated for 5 days by MTT assay; assay type: functional; conditions: time 5 day
SMILES,EC50 [1] [nM],CC50 at 120 h [2] [nM],selectivity ratio [3],EC50 [4] [nM],EC50 [5] [nM],EC50 [6] [nM],EC50 [7] [nM],EC50 [8] [nM],EC50 [9] [nM],EC50 [10] [nM],IC50 [11] [nM],Ratio EC50 [12],Ratio EC50 [13],Ratio EC50 [14]
Cc1cc(/C=C/C#N)cc(C)c1Oc1nc(Nc2ccc(N3CCN(S(C)(=O)=O)CC3)c(F)c2)ncc1-c1cnc(F)nc1,6.3,600,95,–,–,–,–,–,–,–,–,–,–,–
Cc1cc(/C=C/C#N)cc(C)c1Oc1nc(Nc2ccc(N3CCN(S(C)(=O)=O)CC3)c(C#N)c2)ncc1-c1cnc(F)nc1,39,30900,784,–,–,–,–,–,–,–,–,–,–,–
Cc1cc(/C=C/C#N)cc(C)c1Oc1nc(Nc2ccc(N3CCN(S(C)(=O)=O)CC3)c(F)c2)ncc1-c1cnc(N)nc1,7.3,6700,918,–,–,–,–,–,–,–,–,–,–,–
Cc1cc(/C=C/C#N)cc(C)c1Oc1nc(Nc2ccc(N3CCS(=O)(=O)CC3)c(C#N)c2)ncc1-c1ccc(N)nc1,41,700,16,–,–,–,–,–,–,–,–,–,–,–
Cc1cc(/C=C/C#N)cc(C)c1Oc1nc(Nc2ccc(N3CCS(=O)(=O)CC3)c(F)c2)ncc1-c1cnc(F)nc1,13,28800,2270,51,13,120,6500,55,210,1590,350,–,–,–
Cc1cc(/C=C/C#N)cc(C)c1Oc1nc(Nc2ccc(N3CCS(=O)(=O)CC3)c(C#N)c2)ncc1-c1cnc(N)nc1,31,800,22,–,–,–,–,–,–,–,–,–,–,–
Cc1cc(/C=C/C#N)cc(C)c1Oc1nc(Nc2ccc(N3CCN(S(C)(=O)=O)CC3)c(C#N)c2)ncc1-c1ccc(N)nc1,6.4,161000,25300,9.4,6.2,34,250,30,30,210,410,3.7,12.6,7
Cc1cc(/C=C/C#N)cc(C)c1Oc1nc(Nc2ccc(N3CCN(S(C)(=O)=O)CC3)c(F)c2)ncc1-c1ccc(N)nc1,5.8,75600,13000,43,6.6,180,700,29.8,180,100,270,–,–,–
Cc1cc(/C=C/C#N)cc(C)c1Oc1nc(Nc2ccc(N3CCN(S(C)(=O)=O)CC3)c(C#N)c2)ncc1-c1ccc(F)nc1,26,> 200000,> 7620,–,–,–,–,–,–,–,–,–,–,–
Cc1cc(/C=C/C#N)cc(C)c1Oc1nc(Nc2ccc(N3CCS(=O)(=O)CC3)c(C#N)c2)ncc1-c1ccc(F)nc1,27,> 210000,> 7830,–,–,–,–,–,–,–,–,–,–,–
Cc1cc(/C=C/C#N)cc(C)c1Oc1nc(Nc2ccc(N3CCN(S(C)(=O)=O)CC3)c(C#N)c2)ncc1-c1cncnc1,8.5,> 206000,> 24200,39,13,99,890,49,190,770,290,–,–,–
Cc1cc(/C=C/C#N)cc(C)c1Oc1nc(Nc2ccc(N3CCS(=O)(=O)CC3)c(F)c2)ncc1-c1cccnc1,17,82800,4850,130,12,380,1560,64,420,4520,–,–,–,–
Cc1cc(/C=C/C#N)cc(C)c1Oc1nc(Nc2ccc(N3CCS(=O)(=O)CC3)c(F)c2)ncc1-c1cncnc1,5.4,> 219000,> 40500,90,6.7,170,1270,53,280,1350,200,–,–,–
Cc1cc(/C=C/C#N)cc(C)c1Oc1nc(Nc2ccc(N3CCS(=O)(=O)CC3)c(F)c2)ncc1-c1cnc(N)nc1,6,1000,156,–,–,–,–,–,–,–,–,–,–,–
Cc1cc(/C=C/C#N)cc(C)c1Oc1nc(Nc2ccc(N3CCN(S(C)(=O)=O)CC3)c(F)c2)ncc1-c1ccc(F)nc1,17,> 202000,> 11600,140,34,460,4540,51,350,8280,–,–,–,–
Cc1cc(/C=C/C#N)cc(C)c1Oc1nc(Nc2ccc(N3CCN(S(C)(=O)=O)CC3)c(C#N)c2)ncc1-c1cccnc1,7.9,179000,22700,48,11,150,550,37,230,800,330,–,–,–
Cc1cc(/C=C/C#N)cc(C)c1Oc1nc(Nc2ccc(N3CCN(S(C)(=O)=O)CC3)c(F)c2)ncc1-c1cccnc1,19,> 41700,> 2140,230,24,400,2030,57,640,3740,630,–,–,–
Cc1cc(/C=C/C#N)cc(C)c1Oc1nc(Nc2ccc(N3CCN(S(C)(=O)=O)CC3)c(F)c2)ncc1-c1cncnc1,16,> 208000,> 12900,110,28,200,2200,96,313,1160,490,–,–,–
Cc1cc(/C=C/C#N)cc(C)c1Oc1nc(Nc2ccc(N3CCS(=O)(=O)CC3)c(C#N)c2)ncc1-c1cnc(F)nc1,220,23900,110,–,–,–,–,–,–,–,–,–,–,–
Cc1cc(/C=C/C#N)cc(C)c1Oc1nc(Nc2ccc(N3CCS(=O)(=O)CC3)c(F)c2)ncc1-c1ccc(N)nc1,3.5,800,239,–,–,–,–,–,–,–,–,–,–,–
Cc1cc(/C=C/C#N)cc(C)c1Oc1nc(Nc2ccc(N3CCN(S(C)(=O)=O)CC3)c(C#N)c2)ncc1-c1cnc(N)nc1,7.2,38600,5390,27,6.7,42,> 38600,39,96,280,–,–,–,–
Cc1cc(/C=C/C#N)cc(C)c1Oc1nc(Nc2ccc(N3CCS(=O)(=O)CC3)c(C#N)c2)ncc1-c1cncnc1,9.1,2400,258,–,–,–,–,–,–,–,–,–,–,–
Cc1cc(/C=C/C#N)cc(C)c1Oc1nc(Nc2ccc(N3CCS(=O)(=O)CC3)c(C#N)c2)ncc1-c1cccnc1,16,21800,1340,54,9.9,140,720,50,600,990,490,–,–,–
Cc1cc(/C=C/C#N)cc(C)c1Oc1nc(Nc2ccc(N3CCS(=O)(=O)CC3)c(F)c2)ncc1-c1ccc(F)nc1,960,> 212000,> 221,–,–,–,–,–,–,–,–,–,–,–
O=C1Nc2ccc(Cl)cc2[C@@](C#CC2CC2)(C(F)(F)F)O1 [EFAVIRENZ],5.2,> 6400,–,–,78,9.8,280,–,–,373,–,–,–,–
Cc1cc(C#N)cc(C)c1Oc1nc(Nc2ccc(C#N)cc2)nc(N)c1Br [ETRAVIRINE],3.8,> 4600,–,6.5,–,–,23,9,8.5,52,–,–,–,–
Cc1ccnc2c1NC(=O)c1cccnc1N2C1CC1 [NEVIRAPINE],–,> 15000,–,1760,5740,6590,> 1500,223,10300,> 15000,–,–,–,–
